Assay [1] relates to kainic acid-treated ICR mice. The assay can be described thus: Seizure level in kainic acid epileptic seizure model. In kind it is in vivo.
Procedure: Four-week-old male ICR mice were fed with normal diet, tyrosine (L-Tyr), or tyrosine-containing peptide (3xYQ, 1xYW, or 3xYW) for one week. […] Kainic acid (KA) was dissolved in saline by heating in a water bath, resulting in a 4.5 mg/ml KA solution. The resulting KA solution was then intraperitoneally injected at a dose of 36 mg/kg, and seizure level and symptoms were recorded for 2 hours.
For assay [2], the system named is chronic immobilization stress C57BL/6 mice. The experiment in a line: Cognitive function (ORT/OLT) in chronic immobilization stress model. Format: in vivo. The settings on record: stress group, peptide-supplemented diet vs normal diet. The method, then: To analyze the long-term memory capacity of animals following the peptide diet of the present invention, both the object recognition test (ORT) and object location recognition test (OLT) were conducted (FIG. 1). The tests consisted of three phases: habituation, familiarization, and test. During the habituation phase, the animals were acclimated to the testing apparatus for 10 minutes per day over two days. On the third day at the familiarization phase, the animals were allowed to explore two identical objects for 10 minutes. Subsequently, on the fourth day at the test phase, one of the objects was replaced with a novel object, and the animals were allowed to explore for 10 minutes, with result recorded during the initial 5 minutes was used as test data. The object recognition test (ORT) index was calculated using the following formula.
Discrimination index=(N−F)/(N+F) • N: Time spent for exploring new object • F: Time spent for exploring familiar object
After 24 hours of performing the ORT, the location of the familiar object was changed, and the animals were allowed to explore for 5 minutes. During the total exploration time, the ratio of time spent exploring the object with a changed location was calculated to determine the object location recognition test (OLT) index.
A total of 28 seven-week-old male C57BL/6 mice were divided into two groups: a control group and a stress group. […]

The test system of assay [3] is glutamine synthetase (GS). The experiment in a line: Hippocampal glutamine synthetase activity in kainic acid epileptic seizure model. As to conditions: survived mice after kainic acid.
Procedure: Kainic acid (KA) was dissolved in saline by heating in a water bath, resulting in a 4.5 mg/ml KA solution. The resulting KA solution was then intraperitoneally injected at a dose of 36 mg/kg, and seizure level and symptoms were recorded for 2 hours. The brain tissues (prefrontal cortex and hippocampus) of the mice that survived 16 hours or 5 days after the KA injection were collected.
To a 96-well plate, 2 μl of hippocampal homogenate was added, and 50 μl of 50 mM imidazole-HCl buffer (pH 6.8) were added to adjust the volume to 50 μl. Then, 50 μl of GS assay buffer (50 mM imidazole-HCl, pH 6.8, 25 mM L-glutamine, 12.5 mM hydroxylamine, 12.5 mM sodium arsenate, 1 mM MnCl2, and 0.08 mM ADP) were added and the reaction was allowed to occur at 37° C. for approximately 40 minutes. […] To terminate the reaction, 100 μl of stop solution (90 mM FeCl3, 1.8 N HCl, and 1.45% w/v trichloroacetic acid) were added to both the samples and the standard substance, and the absorbance was measured at 560 nm. The GS activity in each sample was determined by comparing it with the standard curve. GS activity was expressed as the generation amount of γ-glutamylhydroxamate, which is produced as a final product, and described in unit of μM/min/μg protein.
For assay [4], the system named is glutamine synthetase (GS). The assay can be described thus: GS activity and GS tyrosine nitration in PFC, chronic immobilization stress model. Format: in vivo, C57BL/6 mice. The settings on record: stress group. Here is the method: Using the prefrontal cortex (PFC) lysate samples from mice obtained after the completion of chronic immobilization stress, GS activity and GS expression level were measured by following the method described above.
Furthermore, the level of tyrosine nitration within GS was measured by using immunoprecipitation (IP)-WB. The immunoprecipitation analysis of tyrosine-nitrated GS was performed using an anti-nitrotyrosine antibody (ab61392, Abcam) and Protein A/G PLUS-Agarose (Santa Cruz) according to the manufacturer's protocol.

Assay [5] deals with chronic immobilization stress C57BL/6 mice. The settings on record: stress group, peptide diet vs normal diet. Here is the method:
A total of 28 male C57BL/6 mice at 7 weeks of age were divided into two groups: a control group (CTL) and a stress group (STR). The stress group was subjected to chronic immobilization stress for 15 days. Specifically, each mouse in the stress group was individually placed in a restrainer for 2 hours daily from […] to induce chronic immobilization stress. The control group (CTL) and stress group (STR) were further classified based on their diets. […] After the completion of the 15-day chronic immobilization stress, the mice were subjected to a sucrose preference test (SPT). Blood samples and prefrontal cortex (PFC) tissues were collected from the mice for subsequent test.
For the analysis of anti-depressive effect, blood and PFC tissues were collected from mice that underwent chronic immobilization stress. The blood collected from mice was centrifuged at 1,000×g for 10 minutes at 4° C. to separate the plasma, and the supernatant was collected and diluted 1/20 with PBS to prepare a sample. The corticosterone concentration in the plasma was then measured using the Corticosterone EIA kit (Cayman) by following the manufacturer's instructions.
In addition, the plasma diluted with PBS at a ⅓ ratio and the PFC tissue lysate (50 μg) were prepared. The ROS/RNS (reactive oxygen species/reactive nitrogen species) level in the plasma and PFC tissues was measured using the ROS/RNS assay kit (Cell Biolabs) according to the manufacturer's instructions.
In addition, the depression was evaluated by measuring the sucrose preference of mice that had undergone 15 days of chronic immobilization stress. The sucrose preference test was conducted over a total of 4 days. Equal amounts of 0.1 M sucrose solution and water were provided in identical bottles of the same size and shape. On the first day, mice were given access to 0.1 M sucrose solution and water for 24 hours. On the second day, the positions of the sucrose solution and water bottles were switched, and mice were given access for 24 hours. On the third day, no sucrose solution or water was provided. On the fourth day, mice were again given access to equal amounts of 0.1 M sucrose solution and water for 3 hours, the positions were then switched, and access was provided for another 3 hours. The amount of sucrose solution and water consumed during the 6-hour period on the fourth day was measured, and the sucrose preference (%) was calculated according to the following formula.
Sucrose preference (%)=Sucrose intake amount/(Water intake amount+Sucrose intake amount)×100

This note sets out measurements from US20240050513A1, “COMPOSITION FOR PREVENTING, AMELIORATING, OR TREATING DISEASE CAUSED BY PROTEIN NITRATION […] WITH TERMINAL TYROSINE AS EFFECTIVE COMPONENT” (INDUSTRY-ACADEMIC COOPERATION FOUNDATION GYEONGSANG …, priority 2021, published 2024).

`N[C@@H](Cc1ccc(O)cc1)C(=O)O` [L-Tyr, L-tyrosine, reference compound]: the seizure level entry in assay [1] (5xL-Tyr diet vs normal diet) is listed as “statistically significantly decreased”.

Take tyrosine-tryptophan [YW]: the cognitive function result in assay [2] was “enhanced cognitive function”. Moreover, the seizure level result in assay [1] (1xYW diet one week vs normal diet) is “statistically significantly decreased”. In addition, the “activity of the glutamine synthetase in the hippocampal tissue” value in assay [3] (1xYW) and in assay [3] (3xYW) was “increased” in each case.

As for glutamine-tyrosine [QY], the “tyrosine nitration level of GS” value in assay [4] (IP-WB, peptide diet vs normal diet) is listed as “statistically significant decrease”. Moreover, the GS activity result in assay [4] (peptide diet (330 mg/kg) vs normal diet) is given as “statistically significant increase”. Besides, in assay [5], the “ROS/RNS level in PFC tissue” value is given as “decreased” and the sucrose preference result is recorded as “increased”.
